Test results reported in patent EP4332093A1, “SALT CONTAINING PIPERAZINE POLYCYCLIC DERIVATIVE, CRYSTAL FORM THEREOF, PREPARATION METHOD THEREFOR, AND USE THEREOF” (Shanghai Hansoh Biomedical Co., Ltd., priority 2021, dated 2022).

Legend:
[1] = Stability study of salt (light, high temperature, high humidity; 5 and 10 days; HPLC related substances); format: physicochemical
Description: The chromatographic peak area normalization method was used to calculate the changes of related substances. [table]

[2] = Hygroscopicity study of salt (DVS); format: physicochemical; settings: 25°C, 0-95-0% RH
Description: The hygroscopicity of a drug refers to the characteristics of the drug's ability or degree of water absorption at a certain temperature and humidity. […] (DVS) was used to characterize the ability of drugs to absorb water under different humidity conditions. The instrument parameters are detailed in the table below. [table]

[3] = Solubility of hydrochloride and free base in different media (37°C, 24 hours, HPLC); format: physicochemical; settings: for solubility at 24 h: thermodynamic from solid
Method: The glass bottle was shaken overnight on an electrothermal constant temperature shaking tank, and the temperature was set to 37°C. After 24 hours, the sample solution was filtered with a 0.45 µm mixed water fiber filter membrane, and the subsequent filtrate was taken to test its content by HPLC. HPLC detection methods are described in "Stability Study Conditions". Table 24 Solubility of hydrochloride and free base in different pH buffers

[4] = Salt form quantification (HPLC-ELSD); format: physicochemical; settings: HPLC-ELSD, external standard method
Method: The number of acids binding in the salt form was quantified by HPLC-ELSD test. An appropriate amount of NaCl was weighed, and a series of linear solutions of different concentrations with the diluent acetonitrile-water (50:50) was prepared. […] The above linear solution and hydrochloride samples solution was taken to filter. [table]

[5] = Crystal form stability study of hydrochloride for 30 days; format: physicochemical; settings: HPLC peak area normalization
Method: The diluent 80% methanol solution was added to prepare a solution containing about 0.5 mg/mL hydrochloride. The mixture was sonicated for 30min to produce a clear solution. 1mL of the soluion was filtered and measured by HPLC. See "2.3.4" for the HPLC analysis method. The content of related substances was calculated according to the peak area normalization method, and the results are shown in Table 32 below. Table 32 HPLC data of hydrochloride in stability experimental conditions for 30 days

[6] = molecular target: T1, dopamine D3 receptor (Homo sapiens, UniProt P35462); assay: Radioligand binding assay, dopamine D3 receptor ([3H]-methylspiperone); settings: Human Dopamine D3 Receptor membrane, [3H]-methylspiperone 0.5 nM
T1 construct: purchased PerkinElmer ES-173-M400UA
T1 sequence (P35462 whole entry): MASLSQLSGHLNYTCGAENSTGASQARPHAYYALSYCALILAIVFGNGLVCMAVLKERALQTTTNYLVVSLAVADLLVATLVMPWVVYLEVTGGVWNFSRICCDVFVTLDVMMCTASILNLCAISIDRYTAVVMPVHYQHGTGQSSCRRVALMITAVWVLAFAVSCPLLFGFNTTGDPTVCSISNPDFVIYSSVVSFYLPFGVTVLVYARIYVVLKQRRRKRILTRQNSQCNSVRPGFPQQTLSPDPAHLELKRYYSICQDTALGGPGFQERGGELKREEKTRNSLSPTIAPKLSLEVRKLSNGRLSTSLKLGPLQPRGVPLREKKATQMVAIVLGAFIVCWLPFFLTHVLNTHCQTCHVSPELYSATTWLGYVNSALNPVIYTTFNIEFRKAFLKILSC
Method: Determination of the binding ability of the compounds of the present invention to dopamine D3 receptor
The objective of this test example is to determine the affinity of the compounds for dopamine D3 receptor.
Experimental buffer: 50 mM Tris-HCl pH 7.4, 10 mm MgCl2; washing liquor: 50 mM Tris-HCl pH 7.4, stored at 4°C; 0.5% PEI solution: 0.5 g PEI dissolved in 100 mL ddH2O, 4°C storage of spare.
(§1) 5 µL of the test compounds (0.005 nM to 100 nM, 10 concentrations in total) and 100 µL of buffer were added to a 96-well assay plate. 1 µL of cell membrane and 300 µL of buffer were added to each well, and the plate was shaken at 600 rpm for 5 minutes. 100 µL of a mixed solution of buffer and [^3H]-methylspiperone (final concentration of 0.5 nM) was added to the reaction system per well, and the plate was shaken at 600 rpm for 5 minutes and incubated at 27°C for 30 min. The UNIFII,TER-96 GF/B filter plate pre-incubated with 0.5% PEI for 1 h was washed twice with the buffer (1 mL/well). The cell membrane suspension was added to the […]-96 GF/B filter plate, washed 4 times, and incubated at 55°C for 10 min. 40 µL of ULTIMA GOLD was added to each well, and liquid scintillation counting was carried out.
(§2) The CPM (Counts per minute) values were determined by TopCount. […] The 10 concentrations of the compound were from 100 nM to 0.005 nM after 3-fold dilution of the reaction system. The percent inhibition rate and ten-point concentration data were fitted to the parametric nonlinear logistic equation by using GraphPad prism to calculate the IC50 values of the compound.

[7] = molecular target: T2, D3 receptor (Homo sapiens, UniProt P35462); assay: cAMP content in cells stably expressing D3 receptors (CHO-D3, forskolin, HTRF); format: cell-based
T2 construct: expressed in transfected cells
T2 sequence (P35462 whole entry): as above

[8] = molecular target: T3, 5-HT2A receptor (Homo sapiens, UniProt P28223); assay: Radioligand binding assay, 5-HT2A receptor ([3H]-Ketanserin); design: purchased PerkinElmer; settings: Human 5-HT2A Receptor membrane, [3H]-Ketanserin 2 nM; read-out: 5HT-2A Binding IC50
T3 sequence (P28223 whole entry): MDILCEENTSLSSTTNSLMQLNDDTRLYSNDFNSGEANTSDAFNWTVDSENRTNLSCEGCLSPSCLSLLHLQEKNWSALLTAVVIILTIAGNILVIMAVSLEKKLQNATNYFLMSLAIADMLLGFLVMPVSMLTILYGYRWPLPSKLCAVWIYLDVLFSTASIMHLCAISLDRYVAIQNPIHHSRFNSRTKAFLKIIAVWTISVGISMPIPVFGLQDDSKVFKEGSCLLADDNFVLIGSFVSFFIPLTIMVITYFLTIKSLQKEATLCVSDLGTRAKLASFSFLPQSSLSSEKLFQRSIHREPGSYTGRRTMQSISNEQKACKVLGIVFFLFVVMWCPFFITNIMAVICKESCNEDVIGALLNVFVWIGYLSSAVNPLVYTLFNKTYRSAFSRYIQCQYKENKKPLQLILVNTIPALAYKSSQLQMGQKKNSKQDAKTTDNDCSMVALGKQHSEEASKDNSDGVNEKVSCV
Method: Determination of the binding ability of the compounds of the
present invention to 5-HT2A receptor
The objective of this test example is to determine the affinity of the compounds for 5-HT2A receptor.
Experimental buffer: 50 mM Tris-HCl pH 7.4, 4 mM CaCl2; washing liquor: 50 mM Tris-HCl pH 7.4, stored at 4°C; 0.5% PEI solution: 0.5 g PEI dissolved in 100 mL ddH2O, 4°C storage of spare.
as §1, with “plate. 1.5” for “plate. 1”, “and [^3H]-Ketanserin” for “and [^3H]-methylspiperone”, “of 2” for “of 0.5”, “The […]-96” for “The UNIFII,TER-96”
as §2

[9] = molecular target: T3, 5-HT2A receptor; assay: Calcium ion mobility in cells stably expressing 5-HT2A receptors (Flp-In-CHO-5HT2A, FLIPR); format: cell-based; design: expressed in transfected cells; settings: Flp-In-CHO-5HT2A stable pool, 5HT stimulation

Cl.O=C(N[C@H]1C[C@H](CCN2CCN(c3cccc(Cl)c3Cl)CC2)C1)c1ncco1 [hydrochloride]
stability (growth of impurities) [1]: good stability | hygroscopicity (DVS) [2]: slightly hygroscopic | solubility in different pH buffers [3]: pH-dependent, with better solubility under acidic conditions, poor solubility under neutral or alkaline conditions | solubility at 24 h ([3]; aqueous buffer, Buffer pH 3): > 1000 µg/mL | solubility at 24 h ([3]; aqueous buffer, Buffer pH 4): > 1000 µg/mL | solubility at 24 h ([3]; aqueous buffer, Buffer pH 5): 863 µg/mL | solubility at 24 h ([3]; aqueous buffer, Buffer pH 6): 187 µg/mL | solubility at 24 h ([3]; aqueous buffer, Buffer pH 7): 14 µg/mL | solubility at 24 h ([3]; aqueous buffer, Buffer pH 8): 1 µg/mL | solubility at 24 h ([3]; fassgf or other biorelevant, FaSSCoF): > 1000 µg/mL | solubility at 24 h ([3]; fassgf or other biorelevant, FaSSGF): 117 µg/mL | solubility at 24 h ([3]; fassgf or other biorelevant, FeSSCoF): > 1000 µg/mL | solubility at 24 h ([3]; simulated gastric fluid, Buffer pH 1): > 1000 µg/mL | solubility at 24 h ([3]; simulated gastric fluid, Buffer pH 2): > 1000 µg/mL | solubility at 24 h ([3]; FaSSIF): > 1000 µg/mL | solubility at 24 h ([3]; FeSSIF): > 1000 µg/mL | solubility in water compared with free base ([3]; water): greatly improved | solubility at 24 h ([3]; water, H2O): > 1000 µg/mL | Determination of Cl-percentage content in hydrochloride ([4]; Batch 1): 7.82% | Determination of Cl-percentage content in hydrochloride ([4]; Batch 2): 7.90% | Area% at RRT 1.00 ([5]; 0d): 99.44% | Area% at RRT 1.07 ([5]; 0d): 0.07% | Area% at RRT 1.93 ([5]; 0d): 0.42% | Area% at RRT 2.43 ([5]; 0d): 0.07% | Area% at RRT 1.00 ([5]; GS-30d): 99.43% | Area% at RRT 1.07 ([5]; GS-30d): 0.11% | Area% at RRT 1.93 ([5]; GS-30d): 0.39% | Area% at RRT 2.43 ([5]; GS-30d): 0.07% | Area% at RRT 1.00 ([5]; GW-30d): 99.51% | Area% at RRT 1.07 ([5]; GW-30d): 0.08% | Area% at RRT 1.93 ([5]; GW-30d): 0.41% | Area% at RRT 1.00 ([5]; GZ-30d): 99.43% | Area% at RRT 1.07 ([5]; GZ-30d): 0.09% | Area% at RRT 1.93 ([5]; GZ-30d): 0.41% | Area% at RRT 2.43 ([5]; GZ-30d): 0.08% | Area% at RRT 1.00 ([5]; WS-30d): 99.46% | Area% at RRT 1.07 ([5]; WS-30d): 0.09% | Area% at RRT 1.93 ([5]; WS-30d): 0.38% | Area% at RRT 2.43 ([5]; WS-30d): 0.07%

Cc1cnoc1C(=O)N[C@H]1C[C@H](CCN2CCN(c3cccc(Cl)c3Cl)CC2)C1 [Example 13A, N-(Trans-3-(2-(4-(2,3-dichlorophenyl)piperazin-1-yl)ethyl)cyclobutyl)-4-methylisox azole-5-carboxamide]
IC50 [6]: 1.36 nM | EC50 [7]: 1.1 nM | IC50 [8]: 1.81 nM | IC50 [9]: 11.7 nM

Cc1nc(C(=O)N[C@H]2C[C@H](CCN3CCN(c4cccc(Cl)c4Cl)CC3)C2)co1 [Example 18A, N-(Trans-3-(2-(4-(2,3-dichlorophenyl)piperazin-1-yl)ethyl)cyclobutyl)-2-methyloxazole-4-carboxamide]
IC50 [6]: 0.42 nM | EC50 [7]: 1.4 nM | IC50 [8]: 1.37 nM | IC50 [9]: 6.44 nM

Cc1cc(C(=O)NC2CC(CCN3CCN(c4cccc(Cl)c4Cl)CC3)C2)on1 (stereo not shown) [Example 14A]
IC50 [6]: 0.34 nM | EC50 [7]: 0.9 nM | IC50 [8]: 1.35 nM | IC50 [9]: 4.37 nM

O=C(N[C@H]1C[C@H](CCN2CCN(c3cccc(Cl)c3Cl)CC2)C1)c1ccon1 [Example 17A, N-(Trans-3-(2-(4-(2,3-dichlorophenyl)piperazin-1-yl)ethyl)cyclobutyl)isoxazole-3-ca rboxamide]
IC50 [6]: 0.3 nM | EC50 [7]: 1.1 nM | IC50 [8]: 1.92 nM | IC50 [9]: 20.8 nM
